From ChEMBL document CHEMBL1909046, “DrugMatrix in vitro pharmacology data”

Key:
[1] = target: T1, Adenosine receptor A3 (Homo sapiens, UniProt P0DMS8); format: cell membranes, CHO-K1, Membrane;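 also: radioligand binding assay with AB-MECA serving as the labeled ligand; in other assays of this panel Not Active means under 50% inhibition at 10 µM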
T1 sequence (P0DMS8 whole entry): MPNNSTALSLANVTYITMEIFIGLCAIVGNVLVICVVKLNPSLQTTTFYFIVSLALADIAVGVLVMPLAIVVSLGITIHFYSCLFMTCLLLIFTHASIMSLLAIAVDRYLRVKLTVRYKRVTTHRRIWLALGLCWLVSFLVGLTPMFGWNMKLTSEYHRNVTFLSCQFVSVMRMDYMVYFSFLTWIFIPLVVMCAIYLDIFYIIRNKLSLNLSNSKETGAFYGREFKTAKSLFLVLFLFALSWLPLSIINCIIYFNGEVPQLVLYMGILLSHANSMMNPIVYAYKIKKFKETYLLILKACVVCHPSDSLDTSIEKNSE

[2] = target: Insulin receptor (Rattus norvegicus, UniProt P15127); format: cell membranes, Wistar, Liver, Membrane; also: in other assays of this panel Not Active means under 50% inhibition at 10 µM
[3] = target: T2, Muscarinic acetylcholine receptor M5 (Homo sapiens, UniProt P08912); format: cell membranes, CHO-K1, Membrane; settings: cho-k1; also: in other assays of this panel Not Active means under 50% inhibition at 10 µM
T2 sequence (P08912 whole entry): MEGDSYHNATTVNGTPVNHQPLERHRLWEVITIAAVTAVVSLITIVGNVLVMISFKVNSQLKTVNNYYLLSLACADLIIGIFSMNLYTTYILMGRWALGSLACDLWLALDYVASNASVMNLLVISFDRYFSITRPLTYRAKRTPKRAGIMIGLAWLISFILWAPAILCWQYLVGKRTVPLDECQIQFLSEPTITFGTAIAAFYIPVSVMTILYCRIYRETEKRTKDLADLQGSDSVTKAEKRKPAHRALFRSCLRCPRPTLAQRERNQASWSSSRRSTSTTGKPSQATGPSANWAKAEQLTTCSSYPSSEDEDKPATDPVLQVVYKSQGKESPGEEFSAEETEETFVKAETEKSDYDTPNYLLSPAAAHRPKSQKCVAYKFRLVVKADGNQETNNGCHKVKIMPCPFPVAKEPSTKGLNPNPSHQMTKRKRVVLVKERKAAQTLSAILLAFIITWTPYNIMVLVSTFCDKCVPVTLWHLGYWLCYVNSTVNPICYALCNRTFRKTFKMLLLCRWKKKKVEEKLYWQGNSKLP

[4] = target: T3, Adenosine receptor A1 (Homo sapiens, UniProt P30542); format: cell membranes, CHO, Membrane; settings: cho;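 also: radioligand binding assay at the adenosine A1 receptor, with DPCPX serving as the labelled ligand; in other assays of this panel Not Active means under 50% inhibition at 10 µM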
T3 sequence (P30542 whole entry): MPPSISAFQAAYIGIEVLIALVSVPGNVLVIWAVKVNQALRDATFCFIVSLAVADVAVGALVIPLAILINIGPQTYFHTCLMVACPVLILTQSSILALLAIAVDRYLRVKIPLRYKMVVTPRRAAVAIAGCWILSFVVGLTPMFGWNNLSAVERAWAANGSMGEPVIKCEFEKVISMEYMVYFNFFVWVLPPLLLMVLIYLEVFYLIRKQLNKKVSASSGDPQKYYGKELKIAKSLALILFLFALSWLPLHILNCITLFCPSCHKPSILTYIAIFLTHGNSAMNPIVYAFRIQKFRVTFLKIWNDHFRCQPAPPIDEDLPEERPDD

[5] = DRUGMATRIX: Nicotinic Acetylcholine radioligand binding (ligand: [125I] Epibatidine); format: cell membranes, Membrane; settings: imr-32; Not Active = under 50% inhibition at 10 µM

Chain of Insulin receptor (P15127 27-759 limits assumed): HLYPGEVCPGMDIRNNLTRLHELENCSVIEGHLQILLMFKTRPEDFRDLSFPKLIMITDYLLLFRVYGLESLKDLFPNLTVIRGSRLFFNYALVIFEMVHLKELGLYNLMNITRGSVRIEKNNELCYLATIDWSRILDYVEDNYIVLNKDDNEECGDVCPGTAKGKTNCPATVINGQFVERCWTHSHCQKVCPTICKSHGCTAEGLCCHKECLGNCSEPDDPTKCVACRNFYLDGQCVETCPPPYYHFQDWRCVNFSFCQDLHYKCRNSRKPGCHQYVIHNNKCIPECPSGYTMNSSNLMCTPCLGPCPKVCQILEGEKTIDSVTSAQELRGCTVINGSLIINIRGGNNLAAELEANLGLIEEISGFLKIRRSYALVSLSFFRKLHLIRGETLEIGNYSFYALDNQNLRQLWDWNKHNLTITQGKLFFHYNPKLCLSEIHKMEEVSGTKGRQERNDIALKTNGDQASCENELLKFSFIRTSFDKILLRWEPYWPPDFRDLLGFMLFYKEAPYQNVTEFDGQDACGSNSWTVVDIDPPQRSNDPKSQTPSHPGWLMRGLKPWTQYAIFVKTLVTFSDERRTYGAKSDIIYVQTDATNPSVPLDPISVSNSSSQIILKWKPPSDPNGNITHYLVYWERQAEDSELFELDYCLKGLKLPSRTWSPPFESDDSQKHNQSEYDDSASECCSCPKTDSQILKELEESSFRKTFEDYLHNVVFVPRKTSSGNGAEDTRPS
Chain of Insulin receptor (P15127 764-1383 limits assumed): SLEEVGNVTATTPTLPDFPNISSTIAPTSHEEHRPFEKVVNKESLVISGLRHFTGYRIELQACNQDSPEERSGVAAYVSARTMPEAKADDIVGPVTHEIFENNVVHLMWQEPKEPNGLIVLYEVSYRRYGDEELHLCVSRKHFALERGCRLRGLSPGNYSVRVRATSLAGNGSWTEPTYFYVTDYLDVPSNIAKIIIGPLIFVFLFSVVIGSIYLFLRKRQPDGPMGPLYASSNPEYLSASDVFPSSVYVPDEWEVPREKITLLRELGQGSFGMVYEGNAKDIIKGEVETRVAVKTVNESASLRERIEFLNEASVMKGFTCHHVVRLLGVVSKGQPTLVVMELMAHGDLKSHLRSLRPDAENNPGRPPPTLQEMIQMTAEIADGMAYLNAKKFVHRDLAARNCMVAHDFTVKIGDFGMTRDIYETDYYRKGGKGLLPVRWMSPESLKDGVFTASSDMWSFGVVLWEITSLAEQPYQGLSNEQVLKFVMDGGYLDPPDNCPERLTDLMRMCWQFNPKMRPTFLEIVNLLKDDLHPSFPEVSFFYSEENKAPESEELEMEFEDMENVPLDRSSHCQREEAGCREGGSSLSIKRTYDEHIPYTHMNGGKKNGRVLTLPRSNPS

SMILES: O=C(c1ccccc1C(F)(F)F)N1CCC(Cc2ccccc2)CC1
- IC50 ([1]; cho-k1): Not Active
- IC50 [2]: Not Active
- IC50 [3]: Not Active
- IC50 [4]: Not Active
- IC50 [5]: Not Active
- Ki [5]: Not Active

SMILES: O=C/C=C/c1ccccc1
- IC50 ([1]; cho-k1): Not Active
- IC50 [2]: Not Active
- IC50 [3]: Not Active
- IC50 [4]: Not Active
- IC50 [5]: Not Active
- Ki [5]: Not Active

SMILES: Nc1ccc2c3c(cccc13)C(=O)NC2=O
- IC50 ([1]; cho-k1): Not Active
- IC50 [2]: Not Active
- IC50 [3]: Not Active
- IC50 [4]: Not Active
- IC50 [5]: Not Active
- Ki [5]: Not Active

SMILES: COc1ccc(C(=O)N2CCCC2=O)cc1
- IC50 ([1]; cho-k1): Not Active
- IC50 [2]: Not Active
- IC50 [3]: Not Active
- IC50 [4]: Not Active
- IC50 [5]: Not Active
- Ki [5]: Not Active

SMILES: O=c1cnn([C@@H]2O[C@H](CO)[C@@H](O)[C@H]2O)c(=O)[nH]1 [6-AZAURIDINE]
- IC50 ([1]; cho-k1): Not Active
- IC50 [2]: Not Active
- IC50 [3]: Not Active
- IC50 [4]: Not Active
- IC50 [5]: Not Active
- Ki [5]: Not Active

SMILES: CC[C@H](C)[C@H]1O[C@]2(C=C[C@@H]1C)C[C@@H]1C[C@@H](C/C=C(\C)[C@@H](O[C@H]3C[C@H](OC)[C@@H](O[C@H]4C[C@H](OC)[C@@H](O)[C@H](C)O4)[C@H](C)O3)[C@@H](C)/C=C/C=C3\CO[C@@H]4[C@H](O)C(C)=C[C@@H](C(=O)O1)[C@]34O)O2.CO[C@H]1C[C@H](O[C@H]2[C@H](C)O[C@@H](O[C@@H]3/C(C)=C/C[C@@H]4C[C@@H](C[C@]5(C=C[C@H](C)[C@@H](C(C)C)O5)O4)OC(=O)[C@@H]4C=C(C)[C@@H](O)[C@H]5OC/C(=C\C=C\[C@@H]3C)[C@]54O)C[C@@H]2OC)O[C@@H](C)[C@@H]1O [ABAMECTIN]
- IC50 ([1]; read-out: IC50): 870 nM
- Ki ([1]; read-out: Ki): 492 nM
- IC50 [2]: Not Active
- IC50 [3]: Not Active
- IC50 [4]: Not Active
- IC50 [5]: Not Active
- Ki [5]: Not Active

SMILES: NCCCC(O)(P(=O)(O)O)P(=O)(O)O [ALENDRONIC ACID]
- IC50 ([1]; cho-k1): Not Active
- IC50 [2]: Not Active
- IC50 [3]: Not Active
- IC50 [4]: Not Active
- IC50 [5]: Not Active
- Ki [5]: Not Active

SMILES: Cc1nnc2n1-c1ccc(Cl)cc1C(c1ccccc1)=NC2 [ALPRAZOLAM]
- IC50 ([1]; cho-k1): Not Active
- IC50 [2]: Not Active
- IC50 [3]: Not Active
- IC50 [4]: Not Active
- IC50 [5]: Not Active
- Ki [5]: Not Active

SMILES: Cn1c(=O)c2[nH]cnc2n(C)c1=O.Cn1c(=O)c2[nH]cnc2n(C)c1=O.NCCN [AMINOPHYLLINE]
- IC50 ([1]; cho-k1): Not Active
- IC50 [2]: Not Active
- IC50 [3]: Not Active
- IC50 [4]: Not Active
- IC50 [5]: Not Active
- Ki [5]: Not Active

SMILES: CCC1(CCC(C)C)C(=O)NC(=O)NC1=O [AMOBARBITAL]
- IC50 ([1]; cho-k1): Not Active
- IC50 [2]: Not Active
- IC50 [3]: Not Active
- IC50 [4]: Not Active
- IC50 [5]: Not Active
- Ki [5]: Not Active

SMILES: CC1(C)S[C@@H]2[C@H](NC(=O)[C@H](N)c3ccccc3)C(=O)N2[C@H]1C(=O)O [AMPICILLIN]
- IC50 ([1]; cho-k1): Not Active
- IC50 [2]: Not Active
- IC50 [3]: Not Active
- IC50 [4]: Not Active
- IC50 [5]: Not Active
- Ki [5]: Not Active

SMILES: COc1ccc(C2C(=O)c3ccccc3C2=O)cc1 [ANISINDIONE]
- IC50 ([1]; cho-k1): Not Active
- IC50 [2]: Not Active
- IC50 [3]: Not Active
- IC50 [4]: Not Active
- IC50 [5]: Not Active
- Ki [5]: Not Active

SMILES: O=C1O[C@H]([C@@H](O)CO)C(O)=C1O [ASCORBIC ACID]
- IC50 ([1]; cho-k1): Not Active
- IC50 [2]: Not Active
- IC50 [3]: Not Active
- IC50 [4]: Not Active
- IC50 [5]: Not Active
- Ki [5]: Not Active

SMILES: CN1[C@@H]2CC[C@H]1C[C@@H](OC(=O)C(CO)c1ccccc1)C2 (stereo partly drawn) [ATROPINE]
- IC50 ([1]; cho-k1): Not Active
- IC50 [2]: Not Active
- IC50 [4]: Not Active
- IC50 [5]: Not Active
- Ki [5]: Not Active

SMILES: CC(C(=O)O)c1ccc2oc(-c3ccc(Cl)cc3)nc2c1 (stereo not drawn) [BENOXAPROFEN]
- IC50 ([1]; cho-k1): Not Active
- IC50 [2]: Not Active
- IC50 [3]: Not Active
- IC50 [4]: Not Active
- IC50 [5]: Not Active
- Ki [5]: Not Active

SMILES: COc1ccc2cc3[n+](cc2c1OC)CCc1cc2c(cc1-3)OCO2.[Cl-] [BERBERINE CHLORIDE]
- IC50 ([1]; cho-k1): Not Active
- IC50 [2]: Not Active
- IC50 [3]: Not Active
- IC50 [4]: Not Active
- IC50 [5]: Not Active
- Ki [5]: Not Active

SMILES: O=C(O)CCNC(=O)c1ccccc1 [BETAMIPRON]
- IC50 ([1]; cho-k1): Not Active
- IC50 [2]: Not Active
- IC50 [3]: Not Active
- IC50 [4]: Not Active
- IC50 [5]: Not Active
- Ki [5]: Not Active

SMILES: CC(=O)Oc1ccc(C(c2ccc(OC(C)=O)cc2)c2ccccn2)cc1 [BISACODYL]
- IC50 ([1]; cho-k1): Not Active
- IC50 [2]: Not Active
- IC50 [3]: Not Active
- IC50 [4]: Not Active
- IC50 [5]: Not Active
- Ki [5]: Not Active

SMILES: Cc1cc2c(OCC(CNC(C)(C)C)OC(=O)c3ccccc3)cccc2[nH]1 (stereo not drawn) [BOPINDOLOL]
- IC50 ([1]; cho-k1): Not Active
- IC50 [2]: Not Active
- IC50 [3]: Not Active
- IC50 [4]: Not Active
- IC50 [5]: Not Active
- Ki [5]: Not Active

SMILES: Brc1c(NC2=NCCN2)ccc2nccnc12 [BRIMONIDINE]
- IC50 ([1]; cho-k1): Not Active
- IC50 [2]: Not Active
- IC50 [3]: Not Active
- IC50 [4]: Not Active
- IC50 [5]: Not Active
- Ki [5]: Not Active

SMILES: CN(C)[C@@H]1C(O)=C(C(N)=O)C(=O)[C@@]2(O)C(O)=C3C(=O)c4c(O)ccc(Cl)c4[C@@](C)(O)[C@H]3C[C@@H]12 [CHLORTETRACYCLINE]
- IC50 ([1]; cho-k1): Not Active
- IC50 [2]: Not Active
- IC50 [3]: Not Active
- IC50 [4]: Not Active
- IC50 [5]: Not Active
- Ki [5]: Not Active

SMILES: CN/C(=N\CCSCc1nc[nH]c1C)NC#N [CIMETIDINE]
- IC50 ([1]; cho-k1): Not Active
- IC50 [2]: Not Active
- IC50 [3]: Not Active
- IC50 [4]: Not Active
- IC50 [5]: Not Active
- Ki [5]: Not Active

SMILES: COc1cc(N)c(Cl)cc1C(=O)NC1CCN(CCCOc2ccc(F)cc2)CC1OC (stereo not drawn) [CISAPRIDE]
- IC50 ([1]; cho-k1): Not Active
- IC50 [2]: Not Active
- IC50 [3]: Not Active
- IC50 [4]: Not Active
- IC50 [5]: Not Active
- Ki [5]: Not Active

SMILES: CCC(=O)O[C@]1(C(=O)CCl)[C@@H](C)C[C@H]2[C@@H]3CCC4=CC(=O)C=C[C@]4(C)[C@@]3(F)[C@@H](O)C[C@@]21C [CLOBETASOL PROPIONATE]
- IC50 ([1]; cho-k1): Not Active
- IC50 [2]: Not Active
- IC50 [3]: Not Active
- IC50 [4]: Not Active
- IC50 [5]: Not Active
- Ki [5]: Not Active

SMILES: O=C1CN=C(c2ccccc2Cl)c2cc([N+](=O)[O-])ccc2N1 [CLONAZEPAM]
- IC50 ([1]; cho-k1): Not Active
- IC50 [2]: Not Active
- IC50 [3]: Not Active
- IC50 [4]: Not Active
- IC50 [5]: Not Active
- Ki [5]: Not Active

SMILES: Nc1ccn([C@@H]2O[C@H](CO)[C@@H](O)[C@@H]2O)c(=O)n1 [CYTARABINE]
- IC50 ([1]; cho-k1): Not Active
- IC50 [2]: Not Active
- IC50 [3]: Not Active
- IC50 [4]: Not Active
- IC50 [5]: Not Active
- Ki [5]: Not Active

SMILES: C[C@@H]1C[C@H]2[C@@H]3CCC4=CC(=O)C=C[C@]4(C)[C@@]3(F)[C@@H](O)C[C@]2(C)[C@H]1C(=O)CO [DESOXIMETASONE]
- IC50 ([1]; cho-k1): Not Active
- IC50 [2]: Not Active
- IC50 [3]: Not Active
- IC50 [4]: Not Active
- IC50 [5]: Not Active
- Ki [5]: Not Active

SMILES: C[C@@H]1C[C@H]2[C@@H]3CCC4=CC(=O)C=C[C@]4(C)[C@@]3(F)[C@@H](O)C[C@]2(C)[C@@]1(O)C(=O)CO [DEXAMETHASONE]
- IC50 ([1]; cho-k1): Not Active
- IC50 [2]: Not Active
- IC50 [3]: Not Active
- IC50 [4]: Not Active
- IC50 [5]: Not Active
- Ki [5]: Not Active
